# Values of other authors, collected in patent US20050201949A1, “Pharmaceutical formulations” (priority 2003, published 2005).
# Counter-ions that a name gives are not always drawn.
# Conditions: solid tablets with a lactose excipient; Maillard reaction postulated
structure (smiles),measurement,value
CNCCC(Oc1ccc(C(F)(F)F)cc1)c1ccccc1 (stereo not shown) [fluoxetine hydrochloride],Degradation in the presence of lactose excipient,undergoes degradation
